Laboratory results from the kinase profiling compilation of Christmann-Franck et al. (2016).

Assays:
Experiment in all cases: KINOMEscan competition binding
Details in all cases: compound 1.0 µM
CAMKK1 (human) = CAMKK1 (human) (UniProt Q8N5S9)
[1] = test system: KIT (human), P10721 [D816H]
[2] = test system: EGFR (human), P00533 [747-751 del / S ins]
STK4 (human) = STK4 (human) (UniProt Q13043)
AKT2 (human) = AKT2 (human) (UniProt P31751)
STK33 (human) = STK33 (human) (UniProt Q9BYT3)
MERTK (human) = MERTK (human) (UniProt Q12866)
ROCK2 (human) = ROCK2 (human) (UniProt O75116)
Sequence of ROCK2 (human) (O75116 whole entry, looked up): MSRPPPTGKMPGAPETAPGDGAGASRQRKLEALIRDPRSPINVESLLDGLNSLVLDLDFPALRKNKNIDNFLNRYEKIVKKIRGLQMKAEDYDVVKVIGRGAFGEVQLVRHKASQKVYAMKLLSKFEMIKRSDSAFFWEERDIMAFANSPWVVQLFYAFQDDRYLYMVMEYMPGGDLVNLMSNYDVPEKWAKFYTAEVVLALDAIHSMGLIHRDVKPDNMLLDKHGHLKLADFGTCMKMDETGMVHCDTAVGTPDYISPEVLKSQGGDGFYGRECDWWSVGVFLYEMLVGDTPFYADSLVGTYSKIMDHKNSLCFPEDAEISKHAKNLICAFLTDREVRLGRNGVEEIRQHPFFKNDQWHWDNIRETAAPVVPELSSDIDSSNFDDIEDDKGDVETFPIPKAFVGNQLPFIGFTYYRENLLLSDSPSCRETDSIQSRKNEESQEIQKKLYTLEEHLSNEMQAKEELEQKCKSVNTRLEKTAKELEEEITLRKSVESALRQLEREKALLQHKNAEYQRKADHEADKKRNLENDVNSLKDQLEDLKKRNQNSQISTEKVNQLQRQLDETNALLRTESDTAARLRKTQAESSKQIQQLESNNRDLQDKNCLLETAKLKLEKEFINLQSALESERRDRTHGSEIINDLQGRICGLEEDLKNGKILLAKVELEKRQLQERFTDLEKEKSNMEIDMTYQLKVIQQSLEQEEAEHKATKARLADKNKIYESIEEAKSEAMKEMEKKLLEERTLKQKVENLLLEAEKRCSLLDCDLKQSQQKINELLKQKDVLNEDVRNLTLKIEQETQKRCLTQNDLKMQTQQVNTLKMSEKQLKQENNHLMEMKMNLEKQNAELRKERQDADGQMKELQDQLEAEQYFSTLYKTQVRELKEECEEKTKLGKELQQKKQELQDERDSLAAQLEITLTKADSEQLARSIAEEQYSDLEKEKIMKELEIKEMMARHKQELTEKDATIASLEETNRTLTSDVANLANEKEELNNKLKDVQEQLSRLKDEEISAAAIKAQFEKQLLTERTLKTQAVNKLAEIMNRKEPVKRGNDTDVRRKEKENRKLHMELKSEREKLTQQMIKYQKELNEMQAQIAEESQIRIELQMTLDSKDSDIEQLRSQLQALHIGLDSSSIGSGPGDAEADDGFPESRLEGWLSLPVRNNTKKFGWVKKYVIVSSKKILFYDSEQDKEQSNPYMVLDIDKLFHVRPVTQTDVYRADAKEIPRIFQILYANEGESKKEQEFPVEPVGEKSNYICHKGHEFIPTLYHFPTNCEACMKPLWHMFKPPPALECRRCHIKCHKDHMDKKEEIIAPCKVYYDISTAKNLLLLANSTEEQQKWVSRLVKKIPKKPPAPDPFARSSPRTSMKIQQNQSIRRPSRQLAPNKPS

[3] = test system: KIT (human), P10721 [A829P]
STK10 (human) = STK10 (human) (UniProt O94804)
RPS6KA2 KD1 (human) = RPS6KA2 KD1 (human) (UniProt Q15349)
[4] = test system: PIK3CA (human), P42336 [Q546K]
Sequence of PIK3CA (human), P42336 [Q546K] (P42336 whole entry Q546K, looked up): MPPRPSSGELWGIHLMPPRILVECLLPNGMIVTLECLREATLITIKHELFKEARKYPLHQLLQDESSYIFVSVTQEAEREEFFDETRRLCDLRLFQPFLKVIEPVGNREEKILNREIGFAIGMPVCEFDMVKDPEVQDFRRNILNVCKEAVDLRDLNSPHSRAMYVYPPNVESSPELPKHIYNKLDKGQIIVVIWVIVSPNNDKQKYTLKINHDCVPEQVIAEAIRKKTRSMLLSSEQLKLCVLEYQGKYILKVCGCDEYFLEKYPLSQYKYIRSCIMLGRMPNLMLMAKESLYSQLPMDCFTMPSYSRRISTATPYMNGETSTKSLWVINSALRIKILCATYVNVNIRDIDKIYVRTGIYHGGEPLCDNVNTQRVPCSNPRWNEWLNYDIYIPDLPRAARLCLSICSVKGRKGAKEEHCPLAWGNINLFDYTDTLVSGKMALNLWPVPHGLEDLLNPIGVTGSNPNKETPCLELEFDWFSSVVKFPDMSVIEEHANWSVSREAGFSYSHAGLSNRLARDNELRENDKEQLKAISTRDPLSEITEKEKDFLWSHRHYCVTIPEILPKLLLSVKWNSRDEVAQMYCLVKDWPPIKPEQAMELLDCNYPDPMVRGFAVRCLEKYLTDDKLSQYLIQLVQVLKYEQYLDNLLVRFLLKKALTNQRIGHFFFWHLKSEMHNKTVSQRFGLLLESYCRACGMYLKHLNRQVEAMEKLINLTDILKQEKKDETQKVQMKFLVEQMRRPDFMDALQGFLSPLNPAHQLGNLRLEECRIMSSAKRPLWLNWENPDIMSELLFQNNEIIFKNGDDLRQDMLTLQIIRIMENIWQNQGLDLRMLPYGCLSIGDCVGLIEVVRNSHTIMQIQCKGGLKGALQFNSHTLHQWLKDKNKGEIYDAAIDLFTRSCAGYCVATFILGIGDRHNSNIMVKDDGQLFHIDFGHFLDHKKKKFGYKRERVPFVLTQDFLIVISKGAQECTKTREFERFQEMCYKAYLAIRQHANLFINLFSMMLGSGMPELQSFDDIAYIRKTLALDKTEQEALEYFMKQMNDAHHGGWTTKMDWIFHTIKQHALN

PIP4K2B (human) = PIP4K2B (human) (UniProt P78356)
TGFBR2 (human) = TGFBR2 (human) (UniProt P37173)
Sequence of TGFBR2 (human) (P37173 whole entry, looked up): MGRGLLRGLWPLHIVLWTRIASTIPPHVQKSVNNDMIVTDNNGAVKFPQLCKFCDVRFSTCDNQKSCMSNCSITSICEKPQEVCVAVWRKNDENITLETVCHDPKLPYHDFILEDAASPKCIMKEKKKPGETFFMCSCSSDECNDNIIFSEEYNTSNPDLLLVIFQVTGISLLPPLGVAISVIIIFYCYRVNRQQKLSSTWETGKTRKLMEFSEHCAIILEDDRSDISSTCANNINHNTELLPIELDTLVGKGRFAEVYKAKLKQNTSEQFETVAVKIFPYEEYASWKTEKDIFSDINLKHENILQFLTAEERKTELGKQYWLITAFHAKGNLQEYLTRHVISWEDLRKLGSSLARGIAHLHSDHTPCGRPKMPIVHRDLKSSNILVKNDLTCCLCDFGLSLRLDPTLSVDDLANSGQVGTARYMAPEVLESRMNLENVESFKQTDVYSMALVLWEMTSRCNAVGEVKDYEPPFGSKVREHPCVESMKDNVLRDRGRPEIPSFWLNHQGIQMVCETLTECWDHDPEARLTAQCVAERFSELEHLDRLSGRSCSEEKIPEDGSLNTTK

MAP3K13 (human) = MAP3K13 (human) (UniProt O43283)
PTK2B (human) = PTK2B (human) (UniProt Q14289)
FGFR2 (human) = FGFR2 (human) (UniProt P21802)
Sequence of FGFR2 (human) (P21802 whole entry, looked up): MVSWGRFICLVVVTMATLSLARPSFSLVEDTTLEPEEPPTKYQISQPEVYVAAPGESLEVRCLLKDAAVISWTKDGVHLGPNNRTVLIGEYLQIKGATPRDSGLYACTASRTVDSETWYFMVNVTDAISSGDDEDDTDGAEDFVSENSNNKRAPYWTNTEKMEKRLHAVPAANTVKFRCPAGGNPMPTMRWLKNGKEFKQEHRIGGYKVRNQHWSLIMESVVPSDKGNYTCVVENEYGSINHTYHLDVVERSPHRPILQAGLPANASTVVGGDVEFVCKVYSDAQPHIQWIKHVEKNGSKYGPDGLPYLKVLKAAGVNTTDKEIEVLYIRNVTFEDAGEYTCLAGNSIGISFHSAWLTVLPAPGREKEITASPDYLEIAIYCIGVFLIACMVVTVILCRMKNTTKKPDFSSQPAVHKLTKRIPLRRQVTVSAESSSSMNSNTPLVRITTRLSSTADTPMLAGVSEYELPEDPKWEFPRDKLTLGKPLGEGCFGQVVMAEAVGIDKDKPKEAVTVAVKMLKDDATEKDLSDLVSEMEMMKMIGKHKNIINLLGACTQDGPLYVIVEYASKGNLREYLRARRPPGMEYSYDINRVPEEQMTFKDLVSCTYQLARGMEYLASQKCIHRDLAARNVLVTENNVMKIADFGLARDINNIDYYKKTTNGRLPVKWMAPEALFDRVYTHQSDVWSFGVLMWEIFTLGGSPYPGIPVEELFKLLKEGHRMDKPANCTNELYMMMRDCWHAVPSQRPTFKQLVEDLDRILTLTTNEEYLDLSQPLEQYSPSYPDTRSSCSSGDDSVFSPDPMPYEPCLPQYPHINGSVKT

MAPK4 (human) = MAPK4 (human) (UniProt P31152)
ROS1 (human) = ROS1 (human) (UniProt P08922)
TBK1 (human) = TBK1 (human) (UniProt Q9UHD2)
[5] = test system: ABL1 (human), P00519 [Y253F]
EPHB3 (human) = EPHB3 (human) (UniProt P54753)
RPS6KA3 KD1 (human) = RPS6KA3 KD1 (human) (UniProt P51812)
NTRK3 (human) = NTRK3 (human) (UniProt Q16288)
CHEK2 (human) = CHEK2 (human) (UniProt O96017)
Sequence of CHEK2 (human) (O96017 whole entry, looked up): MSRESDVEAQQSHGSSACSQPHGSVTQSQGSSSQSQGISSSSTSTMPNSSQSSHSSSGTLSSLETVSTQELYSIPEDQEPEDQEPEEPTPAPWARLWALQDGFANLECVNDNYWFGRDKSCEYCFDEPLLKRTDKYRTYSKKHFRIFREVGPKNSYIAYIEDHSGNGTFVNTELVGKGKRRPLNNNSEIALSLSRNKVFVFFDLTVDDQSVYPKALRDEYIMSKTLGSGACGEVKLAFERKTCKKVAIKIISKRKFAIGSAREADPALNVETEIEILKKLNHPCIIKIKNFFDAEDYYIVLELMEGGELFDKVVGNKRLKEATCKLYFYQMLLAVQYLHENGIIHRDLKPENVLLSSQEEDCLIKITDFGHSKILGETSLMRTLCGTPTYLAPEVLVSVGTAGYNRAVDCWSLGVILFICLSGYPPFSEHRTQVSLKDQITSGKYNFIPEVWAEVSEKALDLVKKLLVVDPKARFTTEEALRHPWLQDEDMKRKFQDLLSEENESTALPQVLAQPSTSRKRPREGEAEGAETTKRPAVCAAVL

EPHB1 (human) = EPHB1 (human) (UniProt P54762)
MAP2K1 (human) = MAP2K1 (human) (UniProt Q02750)
MKNK1 (human) = MKNK1 (human) (UniProt Q9BUB5)
Sequence of MKNK1 (human) (Q9BUB5 whole entry, looked up): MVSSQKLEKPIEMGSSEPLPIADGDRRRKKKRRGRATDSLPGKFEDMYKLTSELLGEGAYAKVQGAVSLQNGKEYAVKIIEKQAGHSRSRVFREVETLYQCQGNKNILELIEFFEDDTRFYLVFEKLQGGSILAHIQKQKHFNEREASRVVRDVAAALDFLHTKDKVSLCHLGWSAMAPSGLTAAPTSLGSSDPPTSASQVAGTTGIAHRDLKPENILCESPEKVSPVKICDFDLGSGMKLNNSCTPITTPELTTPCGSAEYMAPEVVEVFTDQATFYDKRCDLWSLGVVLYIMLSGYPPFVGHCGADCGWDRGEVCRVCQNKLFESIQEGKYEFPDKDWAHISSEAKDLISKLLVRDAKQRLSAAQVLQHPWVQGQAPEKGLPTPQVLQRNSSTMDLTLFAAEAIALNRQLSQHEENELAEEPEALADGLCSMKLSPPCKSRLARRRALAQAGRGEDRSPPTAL

GSK3B (human) = GSK3B (human) (UniProt P49841)
IKBKB (human) = IKBKB (human) (UniProt O14920)
ADCK3 (human) = ADCK3 (human) (UniProt Q8NI60)
[6] = test system: PIK3CA (human), P42336 [E545K]
Sequence of PIK3CA (human), P42336 [E545K] (P42336 whole entry E545K, looked up): as the sequence (P42336 whole entry Q546K, looked up) above, with E545K, K546Q counted along it

FES (human) = FES (human) (UniProt P07332)
ZAP70 (human) = ZAP70 (human) (UniProt P43403)
MAPK10 (human) = MAPK10 (human) (UniProt P53779)
[7] = test system: FGFR3 (human), P22607 [G697C]
CDC42BPB (human) = CDC42BPB (human) (UniProt Q9Y5S2)
EPHA6 (human) = EPHA6 (human) (UniProt Q9UF33)
MAP2K2 (human) = MAP2K2 (human) (UniProt P36507)
PRKACB (human) = PRKACB (human) (UniProt P22694)
NEK5 (human) = NEK5 (human) (UniProt Q6P3R8)
NEK11 (human) = NEK11 (human) (UniProt Q8NG66)

CN(C)C/C=C/C(=O)Nc1cccc(C(=O)Nc2ccc(Nc3nccc(-c4c(-c5ccccc5)nn5ccccc45)n3)cc2)c1
kinase still bound, per cent of control (CAMKK1 (human)): 100%
kinase still bound, per cent of control [1]: 86%
kinase still bound, per cent of control [2]: 3.4%
kinase still bound, per cent of control (STK4 (human)): 4.2%
kinase still bound, per cent of control (AKT2 (human)): 100%
kinase still bound, per cent of control (STK33 (human)): 91%
kinase still bound, per cent of control (MERTK (human)): 49%
kinase still bound, per cent of control (ROCK2 (human)): 75%
kinase still bound, per cent of control [3]: 71%
kinase still bound, per cent of control (STK10 (human)): 23%
kinase still bound, per cent of control (RPS6KA2 KD1 (human)): 86%
kinase still bound, per cent of control [4]: 100%
kinase still bound, per cent of control (PIP4K2B (human)): 100%
kinase still bound, per cent of control (TGFBR2 (human)): 10%
kinase still bound, per cent of control (MAP3K13 (human)): 100%
kinase still bound, per cent of control (PTK2B (human)): 85%
kinase still bound, per cent of control (FGFR2 (human)): 49%
kinase still bound, per cent of control (MAPK4 (human)): 94%
kinase still bound, per cent of control (ROS1 (human)): 100%
kinase still bound, per cent of control (TBK1 (human)): 100%
kinase still bound, per cent of control [5]: 1.6%
kinase still bound, per cent of control (EPHB3 (human)): 86%
kinase still bound, per cent of control (RPS6KA3 KD1 (human)): 50%
kinase still bound, per cent of control (NTRK3 (human)): 84%
kinase still bound, per cent of control (CHEK2 (human)): 100%
kinase still bound, per cent of control (EPHB1 (human)): 84%
kinase still bound, per cent of control (MAP2K1 (human)): 100%
kinase still bound, per cent of control (MKNK1 (human)): 96%
kinase still bound, per cent of control (GSK3B (human)): 49%
kinase still bound, per cent of control (IKBKB (human)): 84%
kinase still bound, per cent of control (ADCK3 (human)): 0%
kinase still bound, per cent of control [6]: 100%
kinase still bound, per cent of control (FES (human)): 100%
kinase still bound, per cent of control (ZAP70 (human)): 96%
kinase still bound, per cent of control (MAPK10 (human)): 0%
kinase still bound, per cent of control [7]: 93%
kinase still bound, per cent of control (CDC42BPB (human)): 16%
kinase still bound, per cent of control (EPHA6 (human)): 32%
kinase still bound, per cent of control (MAP2K2 (human)): 88%
kinase still bound, per cent of control (PRKACB (human)): 83%
kinase still bound, per cent of control (NEK5 (human)): 98%
kinase still bound, per cent of control (NEK11 (human)): 100%

CN(C)C/C=C/C(=O)Nc1cccc(C(=O)Nc2ccc(Nc3nccc(/C(C#N)=C4\Nc5ccccc5S4)n3)cc2)c1
kinase still bound, per cent of control (CAMKK1 (human)): 100%
kinase still bound, per cent of control [1]: 100%
kinase still bound, per cent of control [2]: 85%
kinase still bound, per cent of control (STK4 (human)): 100%
kinase still bound, per cent of control (AKT2 (human)): 100%
kinase still bound, per cent of control (STK33 (human)): 100%
kinase still bound, per cent of control (MERTK (human)): 66%
kinase still bound, per cent of control (ROCK2 (human)): 100%
kinase still bound, per cent of control [3]: 100%
kinase still bound, per cent of control (STK10 (human)): 86%
kinase still bound, per cent of control (RPS6KA2 KD1 (human)): 98%
kinase still bound, per cent of control [4]: 100%
kinase still bound, per cent of control (PIP4K2B (human)): 81%
kinase still bound, per cent of control (TGFBR2 (human)): 100%
kinase still bound, per cent of control (MAP3K13 (human)): 100%
kinase still bound, per cent of control (PTK2B (human)): 100%
kinase still bound, per cent of control (FGFR2 (human)): 100%
kinase still bound, per cent of control (MAPK4 (human)): 100%
kinase still bound, per cent of control (ROS1 (human)): 58%
kinase still bound, per cent of control (TBK1 (human)): 100%
kinase still bound, per cent of control [5]: 100%
kinase still bound, per cent of control (EPHB3 (human)): 95%
kinase still bound, per cent of control (RPS6KA3 KD1 (human)): 87%
kinase still bound, per cent of control (NTRK3 (human)): 97%
kinase still bound, per cent of control (CHEK2 (human)): 100%
kinase still bound, per cent of control (EPHB1 (human)): 100%
kinase still bound, per cent of control (MAP2K1 (human)): 100%
kinase still bound, per cent of control (MKNK1 (human)): 100%
kinase still bound, per cent of control (GSK3B (human)): 93%
kinase still bound, per cent of control (IKBKB (human)): 87%
kinase still bound, per cent of control (ADCK3 (human)): 82%
kinase still bound, per cent of control [6]: 100%
kinase still bound, per cent of control (FES (human)): 100%
kinase still bound, per cent of control (ZAP70 (human)): 81%
kinase still bound, per cent of control (MAPK10 (human)): 0.05%
kinase still bound, per cent of control [7]: 31%
kinase still bound, per cent of control (CDC42BPB (human)): 100%
kinase still bound, per cent of control (EPHA6 (human)): 100%
kinase still bound, per cent of control (MAP2K2 (human)): 100%
kinase still bound, per cent of control (PRKACB (human)): 100%
kinase still bound, per cent of control (NEK5 (human)): 100%
kinase still bound, per cent of control (NEK11 (human)): 100%
